2 molecules from PMC11365854, “Molecular basis of hyper-thermostability in the thermophilic archaeal aldolase MfnB” (Extremophiles, 2024) can be followed below.

Data set [1] deals with T1, MfnB_MM (Methanococcus maripaludis, UniProt Q6LZC1).
T1 construct: gene mfnB; full length, N-terminal hexa-histidine tag (pOPINF), no tag cleavage described; codon-optimised synthetic gene, expressed in E. coli BL21 (DE3)
Kind of data set: spectrophotometric, 4-HFC-P formation at […] nm; fit with substrate inhibition term. The class given is biochemical. The following applies: 45 °C (optimum), pH 7.5, 20 mM Tris–HCl, 150 mM NaCl; two substrate molecules condensed.

The next data set has as its target T2, MfnB_MJ (Methanocaldococcus jannaschii, UniProt Q58499).
T2 construct: gene mfnB; full length (235 residues), N-terminal hexa-histidine tag (pOPINF), no tag cleavage described; codon-optimised synthetic gene, expressed in E. coli BL21 (DE3); homohexamer in published crystal structure
The description is as above. The class given is biochemical. The following applies: 75 °C (optimum), pH 7.5, 20 mM Tris–HCl, 150 mM NaCl; two substrate molecules condensed; substrate inhibition constant.

Data set [2] has as its target T1, MfnB_MM. The description is as above. The following applies: 45 °C (optimum), pH 7.5, 20 mM Tris–HCl, 150 mM NaCl; two substrate molecules condensed; substrate inhibition constant. The class given is biochemical.
Substrate in the data set “purified protein”: O=C[C@H](O)COP(=O)(O)O
Kind of data set: purified protein. The class given is biochemical, Methanocaldococcus jannaschii. The following applies: 75 °C (optimum), pH 7.5, 20 mM Tris–HCl, 150 mM NaCl, two substrate molecules condensed.

T1 sequence (Q6LZC1 whole entry): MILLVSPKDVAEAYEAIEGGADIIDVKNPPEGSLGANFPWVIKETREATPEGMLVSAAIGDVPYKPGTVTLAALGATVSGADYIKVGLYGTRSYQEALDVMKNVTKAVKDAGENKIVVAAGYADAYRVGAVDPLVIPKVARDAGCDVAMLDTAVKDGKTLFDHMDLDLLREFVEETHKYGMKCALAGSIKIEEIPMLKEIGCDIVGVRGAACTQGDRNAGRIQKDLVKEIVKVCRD

Turning to `O=C[C@H](O)COP(=O)(O)O` [D-GA-3-P], the Km at MfnB_MM [1] amounted to 6.9 ± 0.6 µM. Besides, the results for the “Ki” value on MfnB_MJ and at MfnB_MM [2] were 565.3 ± 79.7 µM and 1532.0 ± 160.4 µM, respectively.

B1: MfnB_MJ (Methanocaldococcus jannaschii DSM 2661) (protein)
chain: MILLVSPIDVEEAKEAIAGGADIIDVKNPKEGSLGANFPWMIKAIREVTPKDLLVSATVGDVPYKPGTISLAAVGAAISGADYIKVGLYGVKNYYQAVELMKNVVRAVKDIDENKIVVAAGYADAYRVGAVEPLIVPKIARDAGCDVAMLDTAIKDGKTLFDFQSKEILAEFVDEAHSYGLKCALAGSIKKEHIPILKEIGTDIVGVRGAACKGGDRNNGRIDRELVKELKELCK
notes: full length (235 residues), N-terminal hexa-histidine tag (pOPINF), no tag cleavage described; codon-optimised synthetic gene, expressed in E. coli BL21 (DE3); homohexamer in published crystal structure
In the case of B1, in “purified protein”, the Km was 24.6 ± 3.1 µM and the kcat is 0.142 ± 0.0067 s⁻¹.

In general, Km refers to the concentration of substrate that gives half-maximal velocity. For orientation: kcat means the maximal rate divided by the concentration of active sites.
